Experimental data: US20250353853A1, “FLAVIVIRUS INHIBITORS” (IRBM S.P.A., priority 2022, published 2025)
Like-named read-outs stand apart in the source and are kept apart here.

Assays:
[1] = target: West Nile Virus (WNV) NS2B-NS3 protease (West Nile virus (WNV), UniProt P06935); assay: WNV Protease Inhibition Assay; format: biochemical
Text: WNV Protease Inhibition Assay

[2] = tested on: ZIKV replicon in Vero cells; assay: ZIKV Replication Inhibition Assay (replicon, NanoLuc); conditions: Zika virus, Vero, 72 h, read-out: Zika Replicon EC50
[3] = 2 nM protease, 10 μM pERTKR-AMC substrate, read-out: WNV Protease IC50

Chain of West Nile Virus (WNV) NS2B-NS3 protease (P06935 1502-1679 limits assumed): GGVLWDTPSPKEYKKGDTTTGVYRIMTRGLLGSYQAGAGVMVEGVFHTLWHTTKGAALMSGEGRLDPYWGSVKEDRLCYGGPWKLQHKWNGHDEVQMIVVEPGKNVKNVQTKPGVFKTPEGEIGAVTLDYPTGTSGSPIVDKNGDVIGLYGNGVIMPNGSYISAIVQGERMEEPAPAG
Chain of West Nile Virus (WNV) NS2B-NS3 protease (P06935 1371-1501 partner limits assumed): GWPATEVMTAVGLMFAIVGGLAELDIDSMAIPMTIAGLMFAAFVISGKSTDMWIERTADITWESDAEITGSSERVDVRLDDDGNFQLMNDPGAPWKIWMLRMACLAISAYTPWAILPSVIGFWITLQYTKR

SMILES	IC50 [1]	EC50 [2]	IC50 [1, 3]
Cc1ncn(C)c1-c1ccc(C[n+]2cc([N-]C(=O)Nc3cncc(C(F)(F)F)c3)on2)nc1 [Example 140, (3-((5-(1,4-dimethyl-1H-imidazol-5-yl)pyridin-2-yl)methyl)-1,2,3-oxadiazol-3-ium-5-yl)((5-(trifluoromethyl)pyridin-3-yl)carbamoyl)amide]	100 to 1000 nM	1000 to 20000 nM	–
Cc1ncccc1-c1ccc(C[n+]2cc([N-]C(=O)Nc3cncc(C(F)(F)F)c3)on2)nc1 [Example 141, (3-((2′-methyl-[3,3′-bipyridin]-6-yl)methyl)-1,2,3-oxadiazol-3-ium-5-yl)((5-(trifluoromethyl)pyridin-3-yl)carbamoyl)amide]	–	100 to 1000 nM	< 100 nM
Cc1noc(C)c1-c1ccc(C[n+]2cc([N-]C(=O)Nc3cccc(C4CC4)c3)on2)nc1 [Example 142, ((3-cyclopropylphenyl)carbamoyl)(3-((5-(3,5-dimethylisoxazol-4-yl)pyridin-2-yl)methyl)-1,2,3-oxadiazol-3-ium-5-yl)amide]	100 to 1000 nM	100 to 1000 nM	–
Cc1nn(C)c(C)c1-c1ccc(C[n+]2cc([N-]C(=O)Nc3cccc(C(F)(F)F)c3)on2)nc1 [Example 143, ((3-(trifluoromethyl)phenyl)carbamoyl)(3-((5-(1,3,5-trimethyl-1H-pyrazol-4-yl)pyridin-2-yl)methyl)-1,2,3-oxadiazol-3-ium-5-yl)amide]	–	100 to 1000 nM	< 100 nM
N#Cc1ncncc1-c1ccc(C[n+]2cc([N-]C(=O)Nc3cncc(C(F)(F)F)c3)on2)nc1 [Example 144, (3-((5-(4-cyanopyrimidin-5-yl)pyridin-2-yl)methyl)-1,2,3-oxadiazol-3-ium-5-yl)((5-(trifluoromethyl)pyridin-3-yl)carbamoyl)amide]	–	1000 to 20000 nM	< 100 nM
O=C([N-]c1c[n+](Cc2ccc(-c3ccnnc3)cn2)no1)Nc1cncc(C(F)(F)F)c1 [Example 145, (3-((5-(pyridazin-4-yl)pyridin-2-yl)methyl)-1,2,3-oxadiazol-3-ium-5-yl)((5-(trifluoromethyl)pyridin-3-yl)carbamoyl)amide]	100 to 1000 nM	1000 to 20000 nM	–
Cc1noc(C)c1-c1ccc(C[n+]2cc([N-]C(=O)Nc3cncc(C4CC4)c3)on2)nc1 [Example 146, ((5-cyclopropylpyridin-3-yl)carbamoyl)(3-((5-(3,5-dimethylisoxazol-4-yl)pyridin-2-yl)methyl)-1,2,3-oxadiazol-3-ium-5-yl)amide]	100 to 1000 nM	100 to 1000 nM	–
Cc1nn(C)c(C)c1-c1ccc(C[n+]2cc([N-]C(=O)Nc3cncc(C(F)(F)F)c3)on2)nc1 [Example 147, ((5-(trifluoromethyl)pyridin-3-yl)carbamoyl)(3-((5-(1,3,5-trimethyl-1H-pyrazol-4-yl)pyridin-2-yl)methyl)-1,2,3-oxadiazol-3-ium-5-yl)amide]	–	100 to 1000 nM	< 100 nM
N#Cc1ncncc1-c1ccc(C[n+]2cc([N-]C(=O)Nc3cccc(C(F)(F)F)c3)on2)nc1 [Example 148, (3-((5-(4-cyanopyrimidin-5-yl)pyridin-2-yl)methyl)-1,2,3-oxadiazol-3-ium-5-yl)((3-(trifluoromethyl)phenyl)carbamoyl)amide]	–	100 to 1000 nM	< 100 nM
Cc1ccncc1-c1ccc(C[n+]2cc([N-]C(=O)Nc3cncc(C(F)(F)F)c3)on2)nc1 [Example 149, (3-((4′-methyl-[3,3′-bipyridin]-6-yl)methyl)-1,2,3-oxadiazol-3-ium-5-yl)((5-(trifluoromethyl)pyridin-3-yl)carbamoyl)amide]	100 to 1000 nM	100 to 1000 nM	–
Cc1noc(C)c1-c1ccc(C[n+]2cc([N-]C(=O)Nc3ccc(F)c(C(F)(F)F)c3)on2)nc1 [Example 150, (3-((5-(3,5-dimethylisoxazol-4-yl)pyridin-2-yl)methyl)-1,2,3-oxadiazol-3-ium-5-yl)((4-fluoro-3-(trifluoromethyl)phenyl)carbamoyl)amide]	100 to 1000 nM	< 100 nM	–
Cc1n[nH]c(C)c1-c1ccc(C[n+]2cc([N-]C(=O)Nc3cccc(C(F)(F)F)c3)on2)nc1 [Example 151, (3-((5-(3,5-dimethyl-1H-pyrazol-4-yl)pyridin-2-yl)methyl)-1,2,3-oxadiazol-3-ium-5-yl)((3-(trifluoromethyl)phenyl)carbamoyl)amide]	100 to 1000 nM	100 to 1000 nM	–
Cc1noc(C)c1-c1ccc(C[n+]2cc([N-]C(=O)Nc3ccnc(C(F)(F)F)c3)on2)nc1 [Example 152, (3-((5-(3,5-dimethylisoxazol-4-yl)pyridin-2-yl)methyl)-1,2,3-oxadiazol-3-ium-5-yl)((2-(trifluoromethyl)pyridin-4-yl)carbamoyl)amide]	–	< 100 nM	< 100 nM
Cc1noc(C)c1-c1ccc(C[n+]2cc([N-]C(=O)Nc3cc(F)cc(C(F)(F)F)c3)on2)nc1 [Example 153, (3-((5-(3,5-dimethylisoxazol-4-yl)pyridin-2-yl)methyl)-1,2,3-oxadiazol-3-ium-5-yl)((3-fluoro-5-(trifluoromethyl)phenyl)carbamoyl)amide]	100 to 1000 nM	< 100 nM	–
Cc1noc(C)c1-c1ccc(C[n+]2cc([N-]C(=O)Nc3cnc(C(F)(F)F)s3)on2)nc1 [Example 154, (3-((5-(3,5-dimethylisoxazol-4-yl)pyridin-2-yl)methyl)-1,2,3-oxadiazol-3-ium-5-yl)((2-(trifluoromethyl)thiazol-5-yl)carbamoyl)amide]	100 to 1000 nM	100 to 1000 nM	–
O=C([N-]c1c[n+](Cc2ccc(-c3cncnc3C3CC3)cn2)no1)Nc1cccc(C(F)(F)F)c1 [Example 155, (3-((5-(4-cyclopropylpyrimidin-5-yl)pyridin-2-yl)methyl)-1,2,3-oxadiazol-3-ium-5-yl)((3-(trifluoromethyl)phenyl)carbamoyl)amide]	100 to 1000 nM	100 to 1000 nM	–
Cc1cc(NC(=O)[N-]c2c[n+](Cc3ccc(-c4c(C)noc4C)cn3)no2)cc(C(F)(F)F)c1 [Example 156, (3-((5-(3,5-dimethylisoxazol-4-yl)pyridin-2-yl)methyl)-1,2,3-oxadiazol-3-ium-5-yl)((3-methyl-5-(trifluoromethyl)phenyl)carbamoyl)amide]	1000 to 20000 nM	100 to 1000 nM	–
Cc1noc(C)c1-c1ccc(C[n+]2cc([N-]C(=O)Nc3ccc(Cl)c(C(F)(F)F)c3)on2)nc1 [Example 157, ((4-chloro-3-(trifluoromethyl)phenyl)carbamoyl)(3-((5-(3,5-dimethylisoxazol-4-yl)pyridin-2-yl)methyl)-1,2,3-oxadiazol-3-ium-5-yl)amide]	1000 to 20000 nM	100 to 1000 nM	–
Cc1ccc(NC(=O)[N-]c2c[n+](Cc3ccc(-c4c(C)noc4C)cn3)no2)cc1C(F)(F)F [Example 158, (3-((5-(3,5-dimethylisoxazol-4-yl)pyridin-2-yl)methyl)-1,2,3-oxadiazol-3-ium-5-yl)((4-methyl-3-(trifluoromethyl)phenyl)carbamoyl)amide]	100 to 1000 nM	< 100 nM	–
COc1nccc(C)c1-c1ccc(C[n+]2cc([N-]C(=O)Nc3cccc(C(F)(F)F)c3)on2)nc1 [Example 159, (3-((2′-methoxy-4′-methyl-[3,3′-bipyridin]-6-yl)methyl)-1,2,3-oxadiazol-3-ium-5-yl)((3-(trifluoromethyl)phenyl)carbamoyl)amide]	100 to 1000 nM	< 100 nM	–
